Data published in US20080312287A1, “Compound and Methods For the Treatment of Cancer and Malaria” (University of Washington, priority 2005, published 2008).
pEC50, pIC50: −log10 of the molar value. Like-named read-outs stand apart in the source and are kept apart here.

Tests used:
[1] = target: T1, PfPFT (Plasmodium falciparum, UniProt Q8I503+Q8IHP6); assay: PfPFT inhibition, scintillation proximity assay with partially purified PfPFT; assay type: biochemical; details: for inhibition at 0.005 µM: read-out: % Inhibition of PfPFT at 5 nM, inhibitor at 5 nM; for inhibition at 0.05 µM: read-out: % Inhibition of PfPFT at 50 nM, inhibitor at 50 nM
T1 sequence (Q8I503 1-521): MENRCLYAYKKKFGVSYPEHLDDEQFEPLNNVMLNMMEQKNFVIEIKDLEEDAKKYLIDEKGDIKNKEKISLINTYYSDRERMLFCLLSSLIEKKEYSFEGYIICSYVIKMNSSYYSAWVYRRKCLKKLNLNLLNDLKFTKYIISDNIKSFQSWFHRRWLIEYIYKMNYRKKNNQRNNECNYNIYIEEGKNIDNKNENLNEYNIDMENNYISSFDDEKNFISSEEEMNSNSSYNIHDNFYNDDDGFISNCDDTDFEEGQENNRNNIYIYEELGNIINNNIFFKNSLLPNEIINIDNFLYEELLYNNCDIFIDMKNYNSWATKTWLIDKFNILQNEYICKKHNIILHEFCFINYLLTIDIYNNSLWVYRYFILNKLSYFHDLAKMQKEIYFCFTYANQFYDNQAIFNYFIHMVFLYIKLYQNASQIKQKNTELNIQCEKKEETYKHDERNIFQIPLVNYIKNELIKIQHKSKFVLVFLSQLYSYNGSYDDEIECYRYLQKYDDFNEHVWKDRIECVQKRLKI
T1 sequence (Q8IHP6 1-923): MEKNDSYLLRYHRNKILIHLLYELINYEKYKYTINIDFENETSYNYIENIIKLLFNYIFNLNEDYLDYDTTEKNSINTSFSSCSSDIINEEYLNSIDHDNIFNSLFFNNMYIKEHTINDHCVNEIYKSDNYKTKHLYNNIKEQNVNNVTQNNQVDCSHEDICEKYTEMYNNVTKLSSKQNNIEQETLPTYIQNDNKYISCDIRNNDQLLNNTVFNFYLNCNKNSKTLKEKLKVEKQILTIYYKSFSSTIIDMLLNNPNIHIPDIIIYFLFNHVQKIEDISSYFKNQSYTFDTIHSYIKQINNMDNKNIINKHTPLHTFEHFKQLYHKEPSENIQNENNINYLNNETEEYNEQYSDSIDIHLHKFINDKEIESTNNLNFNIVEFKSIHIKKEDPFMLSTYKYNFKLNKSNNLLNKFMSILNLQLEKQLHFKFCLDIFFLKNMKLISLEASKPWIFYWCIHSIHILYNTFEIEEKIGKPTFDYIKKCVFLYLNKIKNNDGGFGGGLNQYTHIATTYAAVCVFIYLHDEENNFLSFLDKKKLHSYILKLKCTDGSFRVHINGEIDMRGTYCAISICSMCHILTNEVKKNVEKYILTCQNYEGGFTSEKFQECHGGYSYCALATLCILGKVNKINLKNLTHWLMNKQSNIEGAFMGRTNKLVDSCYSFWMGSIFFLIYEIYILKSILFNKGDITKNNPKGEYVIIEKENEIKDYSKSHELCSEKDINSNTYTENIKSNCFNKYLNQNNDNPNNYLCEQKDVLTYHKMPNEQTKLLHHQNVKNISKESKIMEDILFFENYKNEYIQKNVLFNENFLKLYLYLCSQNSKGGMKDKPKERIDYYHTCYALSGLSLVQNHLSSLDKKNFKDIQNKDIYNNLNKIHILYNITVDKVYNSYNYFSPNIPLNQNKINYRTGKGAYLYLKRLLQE

[2] = target: Rat FTase (Rattus norvegicus, UniProt Q02293+Q04631); assay: Rat farnesyltransferase IC50 determination; assay type: biochemical; details: concentration decreasing transferase activity twofold
[3] = tested on: P. falciparum 3D7; assay: P. falciparum ED50 determination, [3H]-hypoxanthine incorporation, strain 3D7; assay type: cell-based, Plasmodium falciparum; details: concentration decreasing hypoxanthine incorporation into parasites twofold, read-out: ED50 3D7
Description: (§1) Plasmodium strains. The P. falciparum strains used in this study were 3D7 (Netherlands, sensitive) provided by Dr. Pradipsinh Rathod from the University of Washington and K1 (Thailand, ChQ-R, Pyr-R) obtained from the MR4Unit of the American Type Culture Collection (ATCC, Manassas, Va.).
(§2) P. falciparum culture. Strains of P. falciparum were sustained in vitro based on experimental techniques as described by Trager and Jensen.^26 Cultures were maintained in RPMI-1640 (Sigma, St. Louis, […].) with 2 mM L-glutamine, 25 mM HEPES, 33 mM NaHCO3, 20 μg/ml gentamicin sulfate and 20% (v/v) heat-inactivated human plasma type A+ (R^P-20P). Type A+ erythrocytes were obtained from lab donors, washed three times with RPMI, re-suspended in 50% RPMI, and stored at 4° C. Parasites were grown in 10 mL of a 2% hematocrit/RP-20P (v/v) in 50-mL flasks under a 5% CO2, 5% O2, and 90% N2 atmosphere.
(§3) P. falciparum ED50 determination. One […]L of PFTI dissolved in DMSO was added to each well of a 96-well plate followed by the addition of 200 μL of P. falciparum culture at parasitemia and hematocrit of 0.5%. Plates were flushed with 5% CO2, 5% O2, and 90% N2 then incubated at 37° C. for 48 hr. [8-^3H]-hypoxanthine (0.3 μCi, 20 Ci/mmol, American Radiolabeled Chemicals) in 30 μL RP-20P was added to cultures and incubated for an additional 24 hours. Cells were harvested onto filter mats by a Multiharvester (Skatron, Sunnyvale, Calif.) and the radioactivity incorporated into the parasites was counted on a β-scintillation counter. The background level detected with uninfected erythrocytes was subtracted from the data. The ^3H-incorporation into infected RBCs with 1 μL DMSO vehicle alone represents 100% malaria growth. ED50 values were determined by linear regression analysis of the plots of ^3H-hypoxanthine incorporation versus concentration of compound.

[4] = tested on: P. falciparum K1; assay: P. falciparum ED50 determination, [3H]-hypoxanthine incorporation, strain K1; assay type: cell-based, Plasmodium falciparum; details: concentration decreasing hypoxanthine incorporation into parasites twofold, read-out: ED50 K1
Description: as §1, §2, §3

[5] = Plasmodium falciparum, 3D7, strain 3D7
[6] = Plasmodium falciparum, K1, strain K1

| Compound | inhibition at 0.005 µM [1] [%] | inhibition at 0.05 µM [1] [%] | pIC50 [2] | pEC50 [3, 5] | pEC50 [4, 6] | Selectivity ([1]; ratio of rat to Plasmodium PFT activity) | pIC50 ([1]; concentration decreasing transferase activity twofold) | % Inhibition of PfPFT at 5 nM ([1]; inhibitor at 5 nM) [%] | % Inhibition of PfPFT at 50 nM ([1]; inhibitor at 50 nM) [%] | pEC50 ([3]; strain 3D7) | pEC50 ([4]; strain K1) | activity in words ([1]; SAR discussion of Table 4) |
| --- | --- | --- | --- | --- | --- | --- | --- | --- | --- | --- | --- | --- |
| Cn1cnc(S(=O)(=O)N(CCN(Cc2cncn2C)c2ccc(Br)cc2)Cc2ccccc2)c1 [Compound 8b, 1-Methyl-1H-imidazole-4-sulfonic acid benzyl-{2-[(4-bromo-phenyl)-(3-methyl-3H-imidazol-4-ylmethyl)-amino]-ethyl}-amide] | 86 | 95 | 6.54 | 6.17 | 5.49 | – | – | – | – | – | – | – |
| Cn1cnc(S(=O)(=O)N(CCN(Cc2cncn2C)c2ccc(Br)cc2)Cc2ccccn2)c1 [Compound 13, 1-Methyl-1H-imidazole-4-sulfonic acid {2-[(4-bromo-phenyl)-(3-methyl-3H-imidazol-4-ylmethyl)-amino]-ethyl}-pyridin-2-ylmethyl-amide] | – | – | 7.08 | – | – | – | – | – | – | – | – | – |
| Cn1cnc(S(=O)(=O)N(CCN(Cc2cncn2C)c2ccc(C#N)cc2)Cc2ccccn2)c1 [Compound 8aa, 1-Methyl-1H-imidazole-4-sulfonic acid {2-[(4-cyano-phenyl)-(3-methyl-3H-imidazol-4-ylmethyl)-amino]-ethyl}-pyridin-2-ylmethyl-amide amide] | 64 | 93 | 7.37 | 6.12 | 6.00 | – | – | – | – | – | – | – |
| CN(C)c1cccc2c(S(=O)(=O)N(CCN(Cc3cncn3C)c3ccc(C#N)cc3)Cc3ccccc3)cccc12 [Compound 8i, 5-Dimethylamino-naphthalene-1-sulfonic acid benzyl-{2-[(4-cyano-phenyl)-(3-methyl-3H-imidazol-4-ylmethyl)-amino]-ethyl}-amide] | 6 | 29 | 6.74 | 6.52 | 6.41 | 3.3 | – | – | – | – | – | – |
| CC(C)C(=O)N1CCC(CN(CCN(Cc2cncn2C)c2ccc(C#N)cc2)S(=O)(=O)c2cn(C)cn2)CC1 [Compound 8u, 1-Methyl-1H-imidazole-4-sulfonic acid {2-[(4-cyano-phenyl)-(3-methyl-3H-imidazol-4-ylmethyl)-amino]-ethyl}-(1-isobutyryl-piperidin-4-ylmethyl)-amide] | 57 | 92 | – | 6.64 | 6.74 | – | – | – | – | – | – | – |
| Cn1cnc(S(=O)(=O)N(CCN(Cc2cncn2C)c2ccc(C#N)cc2)Cc2ccc(-n3cccc3)cc2)c1 [Compound 8ai, 1-Methyl-1H-imidazole-4-sulfonic acid {2-[(4-cyano-phenyl)-(3-methyl-3H-imidazol-4-ylmethyl)-amino]-ethyl}-(4-pyrrol-1-yl-benzyl)-amide] | 39 | 85 | – | 6.59 | 6.39 | – | 7.96 | – | – | – | – | – |
| Cn1cncc1CN(CCN(Cc1ccccc1)S(=O)(=O)c1cccs1)c1ccc(C#N)cc1 [Compound 8f, Thiophene-2-sulfonic acid benzyl-{2-[(4-cyano-phenyl)-(3-methyl-3H-imidazol-4-ylmethyl)-amino]-ethyl}-amide] | 17 | 74 | – | 6.26 | 5.95 | – | – | – | – | – | – | – |
| CC(=O)N1CCC(CN(CCN(Cc2cncn2C)c2ccc(C#N)cc2)S(=O)(=O)c2cn(C)cn2)CC1 [Compound 8t, 1-Methyl-1H-imidazole-4-sulfonic acid (1-acetyl-piperidin-4-ylmethyl)-{2-[(4-cyano-phenyl)-(3-methyl-3H-imidazol-4-ylmethyl)-amino]-ethyl}-amide] | 8 | 44 | – | 5.30 | 5.46 | – | – | – | – | – | – | – |
| Cc1cccc(CN(CCN(Cc2cncn2C)c2ccc(C#N)cc2)S(=O)(=O)c2cn(C)cn2)c1 [Compound 8y, 1-Methyl-1H-imidazole-4-sulfonic acid {2-[(4-cyano-phenyl)-(3-methyl-3H-imidazol-4-ylmethyl)-amino]-ethyl}-(3-methyl-benzyl)-amidem-toluene] | – | – | – | – | – | – | – | 61 | 94 | 6.52 | 6.00 | – |
| C=C(Br)CN(CCN(Cc1cncn1C)c1ccc(C#N)cc1)S(=O)(=O)c1cn(C)cn1 [Compound 8n, 1-Methyl-1H-imidazole-4-sulfonic acid (2-bromo-allyl)-{2-[(4-cyano-phenyl)-(3-methyl-3H-imidazol-4-ylmethyl)-amino]-ethyl}-amide] | 25 | 80 | – | < 5.30 | < 5.30 | – | – | – | – | – | – | – |
| Cn1cnc(S(=O)(=O)N(CCN(Cc2cncn2C)c2ccc(C#N)cc2)CC2CCOCC2)c1 [Compound 8r, 1-Methyl-1H-imidazole-4-sulfonic acid {2-[(4-cyano-phenyl)-(3-methyl-3H-imidazol-4-ylmethyl)-amino]-ethyl}-(tetrahydro-pyran-4-ylmethyl)-amide] | 28 | 84 | – | 6.24 | 6.40 | – | – | – | – | – | – | – |
| CC(C)C(=O)N(CCN(Cc1cncn1C)c1ccc(C#N)cc1)Cc1ccccc1 [Compound 8k, N-Benzyl-N-{2-[(4-cyano-phenyl)-(3-methyl-3H-imidazol-4-ylmethyl)-amino]-ethyl}-isobutyramide] | 0 | 61 | – | 5.70 | < 5.30 | – | – | – | – | – | – | – |
| Cn1cnc(S(=O)(=O)N(CCN(Cc2cncn2C)c2ccc(C#N)cc2)CC2CCNCC2)c1 [Compound 8s, 1-Methyl-1H-imidazole-4-sulfonic acid {2-[(4-cyano-phenyl)-(3-methyl-3H-imidazol-4-ylmethyl)-amino]-ethyl}-piperidin-4-ylmethyl-amide] | 5 | 5 | – | < 5.30 | < 5.30 | – | – | – | – | – | – | inactive |
| C=C(C)CN(CCN(Cc1cncn1C)c1ccc(C#N)cc1)S(=O)(=O)c1cn(C)cn1 [Compound 8m, 1-Methyl-1H-imidazole-4-sulfonic acid {2-[(4-cyano-phenyl)-(3-methyl-3H-imidazol-4-ylmethyl)-amino]-ethyl}-(2-methyl-allyl)-amide] | 6 | 77 | – | < 5.30 | < 5.30 | – | – | – | – | – | – | – |
